Test results published in PubChem BioAssay AID330 (DTP/NCI, 2004).
Values joined by “and” are separate entries in the source; they are usually repeats but may differ in a detail not shown here. Equal values may be shown once. Inconclusive results and toxic doses are left out. How the source made its calls: active means survival T/C of 150% or more; inactive means T/C below 125% in these data.

System: P388 leukemia ip, CD2F1 mice, survival T/C
Experiment: NCI In Vivo Anticancer Drug Screen. Data for tumor model P388 Leukemia (intraperitoneal) in CD2F1 (CDF1) mice
Conditions: endpoint: median survival time, higher = longer survival
Method in brief: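 Mice carrying the transplanted tumor received test compound or vehicle. Survival was recorded in each group, and the value is the treated-group measurement divided by that of the vehicle-treated control group.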

[1] = dose: 50.0 mg/kg/injection, schedule: Q01DX009 (ip), vehicle: Klucel (hydroxypropylcellulose) (HPC)
[2] = dose: 100.0 mg/kg/injection, schedule: Q01DX009 (ip), vehicle: Klucel (hydroxypropylcellulose) (HPC)
[3] = dose: 50.0 mg/kg/injection, schedule: Q01DX005 (ip), vehicle: saline with Tween-80
[4] = dose: 100.0 mg/kg/injection, schedule: Q01DX005 (ip), vehicle: saline with Tween-80
[5] = dose: 200.0 mg/kg/injection, schedule: Q01DX005 (ip), vehicle: saline with Tween-80
[6] = dose: 60.0 mg/kg/injection, schedule: Q01DX005 (ip), vehicle: saline with Tween-80
[7] = dose: 120.0 mg/kg/injection, schedule: Q01DX005 (ip), vehicle: saline with Tween-80
[8] = dose: 240.0 mg/kg/injection, schedule: Q01DX005 (ip), vehicle: saline with Tween-80
[9] = dose: 20.0 mg/kg/injection, schedule: Q01DX009 (ip), vehicle: saline with Tween-80
[10] = dose: 40.0 mg/kg/injection, schedule: Q01DX009 (ip), vehicle: saline with Tween-80
[11] = dose: 25.0 mg/kg/injection, schedule: Q01DX001 (ip), vehicle: Klucel (hydroxypropylcellulose) (HPC)
[12] = dose: 50.0 mg/kg/injection, schedule: Q01DX001 (ip), vehicle: Klucel (hydroxypropylcellulose) (HPC)
[13] = dose: 100.0 mg/kg/injection, schedule: Q01DX001 (ip), vehicle: Klucel (hydroxypropylcellulose) (HPC)
[14] = dose: 50.0 mg/kg/injection, schedule: Q01DX009 (ip), vehicle: saline with Tween-80
[15] = dose: 100.0 mg/kg/injection, schedule: Q01DX009 (ip), vehicle: saline with Tween-80
[16] = dose: 200.0 mg/kg/injection, schedule: Q01DX009 (ip), vehicle: saline with Tween-80
[17] = dose: 200.0 mg/kg/injection, schedule: Q01DX009 (ip), vehicle: Klucel (hydroxypropylcellulose) (HPC)
[18] = dose: 25.0 mg/kg/injection, schedule: Q01DX009 (ip), vehicle: saline with Tween-80

Measured: T/C

Nc1cccc(CCCCc2ccccc2)c1
inactive: dose: 100.0 mg/kg/injection, schedule: Q04DX002 (ip), vehicle: saline 103 % of control | dose: 200.0 mg/kg/injection, schedule: Q04DX002 (ip), vehicle: saline 110 % of control

CC(C)N1C(C)c2ccccc2OS1=O (stereo not drawn)
inactive: [1] 99 % of control | [2] 108 % of control

C/C(=N\NC(=S)N1CCCCCC1)c1cccc(C)n1
inactive: dose: 12.5 mg/kg/injection, schedule: Q01DX005 (ip), vehicle: saline with Tween-80 110 % of control | dose: 25.0 mg/kg/injection, schedule: Q01DX005 (ip), vehicle: saline with Tween-80 109 % of control | [3] 120 % of control

CC(NC(=O)OC(C)(C)C)C(=O)NC(C)C(=O)OCc1ccccc1 (stereo not drawn)
inactive: [3] 99 % of control | [4] 89 % of control and 105 % of control | [5] 92 % of control

C=C1C(=O)OC2CC3(C)CCCC(C)C3=CC12 (stereo not drawn)
inactive: dose: 12.5 mg/kg/injection, schedule: Q01DX009 (ip), vehicle: Klucel (hydroxypropylcellulose) (HPC) 100 % of control | dose: 25.0 mg/kg/injection, schedule: Q01DX009 (ip), vehicle: Klucel (hydroxypropylcellulose) (HPC) 96 % of control | [1] 101 % of control | [2] 100 % of control

N#CC(C(=O)CCc1nc2ccccc2[nH]1)c1nc2ccccc2s1 (stereo not drawn)
inactive: [6] 102 % of control | [7] 100 % of control | [8] 105 % of control

Cc1cc(=NO)cc(C)n1O
inactive: dose: 25.0 mg/kg/injection, schedule: Q01DX005 (ip), vehicle: distilled water + alcohol 113 % of control | dose: 50.0 mg/kg/injection, schedule: Q01DX005 (ip), vehicle: distilled water + alcohol 113 % of control and 123 % of control | dose: 50.0 mg/kg/injection, schedule: Q01DX005 (ip), vehicle: water 115 % of control | dose: 100.0 mg/kg/injection, schedule: Q01DX005 (ip), vehicle: distilled water + alcohol 121 % of control | dose: 100.0 mg/kg/injection, schedule: Q01DX005 (ip), vehicle: water 106 % of control | dose: 200.0 mg/kg/injection, schedule: Q01DX005 (ip), vehicle: water 118 % of control

CCCCN(CCCC)/C(N)=N/O
inactive: [9] 92 % of control | [10] 100 % of control | dose: 80.0 mg/kg/injection, schedule: Q01DX009 (ip), vehicle: saline with Tween-80 107 % of control

O=Cc1ccc(N2OC(c3ccc([N+](=O)[O-])cc3)C(c3ccc([N+](=O)[O-])cc3)C2c2ccc([N+](=O)[O-])cc2)cc1 (stereo not drawn)
inactive: dose: 50.0 mg/kg/injection, schedule: Q01DX009 (ip), vehicle: acetone 96 % of control | dose: 100.0 mg/kg/injection, schedule: Q01DX009 (ip), vehicle: acetone 93 % of control | dose: 200.0 mg/kg/injection, schedule: Q01DX009 (ip), vehicle: acetone 100 % of control

NC(N)=NCCCC(N)C(=O)CC(Cc1ccccc1)C(=O)O (stereo not drawn)
inactive: dose: 8.8 mg/kg/injection, schedule: Q01DX005 (ip), vehicle: water 104 % of control | dose: 17.0 mg/kg/injection, schedule: Q01DX005 (ip), vehicle: water 108 % of control | dose: 34.0 mg/kg/injection, schedule: Q01DX005 (ip), vehicle: water 106 % of control | dose: 68.0 mg/kg/injection, schedule: Q01DX005 (ip), vehicle: water 100 % of control

C(=N/Nc1ccccc1)/C(=N\Nc1ccccc1)C1CCN(Cc2ccccc2)CC1
inactive: [11] 103 % of control | [12] 107 % of control | [13] 100 % of control

CNC(=O)OCCC(OC(=O)NC)C1CCC2C3CC=C4CC(OC(=O)NC)CCC4(C)C3CCC12C (stereo not drawn)
inactive: dose: 60.0 mg/kg/injection, schedule: Q01DX005 (ip), vehicle: Klucel (hydroxypropylcellulose) (HPC) 99 % of control | dose: 120.0 mg/kg/injection, schedule: Q01DX005 (ip), vehicle: Klucel (hydroxypropylcellulose) (HPC) 93 % of control | dose: 240.0 mg/kg/injection, schedule: Q01DX005 (ip), vehicle: Klucel (hydroxypropylcellulose) (HPC) 100 % of control

O=C(O)C(Cc1ccccc1)N1C(=O)C=CC1=O (stereo not drawn)
inactive: dose: 10.0 mg/kg/injection, schedule: Q01DX009 (ip), vehicle: saline with Tween-80 112 % of control | [9] 107 % of control | [10] 104 % of control and 95 % of control | [1] 89 % of control | [2] 90 % of control

COC(=O)C1C2CC3c4[nH]c5cc(OC)ccc5c4CCN3CC2CC(O)C1OC (stereo not drawn)
inactive: dose: 50.0 mg/kg/injection, schedule: Q01DX005 (ip), vehicle: Klucel (hydroxypropylcellulose) (HPC) 97 % of control | dose: 100.0 mg/kg/injection, schedule: Q01DX005 (ip), vehicle: Klucel (hydroxypropylcellulose) (HPC) 97 % of control

Cc1cccc(C(=O)N(C)C(c2ccco2)P(=O)(c2ccccc2)c2ccccc2)c1 (stereo not drawn)
inactive: [14] 107 % of control | [15] 101 % of control | [16] 90 % of control | dose: 400.0 mg/kg/injection, schedule: Q01DX009 (ip), vehicle: saline with Tween-80 86 % of control

CCC(=O)/C=C/c1ccc(N(Cl)Cl)cc1
inactive: [11] 107 % of control | [12] 106 % of control | [13] 104 % of control

Cc1onc(-c2ccccc2)c1C(=O)OCCOc1ccc(C(F)(F)F)cc1[N+](=O)[O-]
inactive: [6] 99 % of control | [7] 90 % of control | [8] 90 % of control

COc1cccc(/C=N/NP(=S)(Oc2ccc(C(C)(C)C)cc2)Oc2ccc(C(C)(C)C)cc2)c1OC
inactive: [3] 98 % of control | [4] 95 % of control | [5] 100 % of control

C/C=C/C=c1/[nH]c(=O)/c(=C\c2ccccc2)[nH]c1=O
inactive: [1] 104 % of control | [2] 104 % of control | [17] 103 % of control

NNc1ccc(N(CCO)CCO)nn1
inactive: dose: 50.0 mg/kg/injection, schedule: Q01DX009 (ip), vehicle: saline 93 % of control | dose: 100.0 mg/kg/injection, schedule: Q01DX009 (ip), vehicle: saline 100 % of control | dose: 200.0 mg/kg/injection, schedule: Q01DX009 (ip), vehicle: saline 105 % of control

CN1C(=O)C2C(C(=O)O)C2N(C)C1=O (stereo not drawn)
inactive: dose: 10.0 mg/kg/injection, schedule: Q04DX003 (ip), vehicle: saline 99 % of control | dose: 100.0 mg/kg/injection, schedule: Q04DX003 (ip), vehicle: saline 99 % of control | dose: 200.0 mg/kg/injection, schedule: Q04DX003 (ip), vehicle: saline 99 % of control and 101 % of control | dose: 400.0 mg/kg/injection, schedule: Q04DX003 (ip), vehicle: saline 100 % of control and 101 % of control

CC12CC3(C)CC(C)(C1)CC(C(NC(C)(C)C)C(=O)O)(C2)C3 (stereo not drawn)
inactive: [18] 100 % of control | [14] 100 % of control and 105 % of control and 122 % of control | [15] 99 % of control and 110 % of control and 96 % of control | [16] 99 % of control

CCc1c(-c2ccccc2)[nH]c2ccccc12
inactive: [18] 105 % of control | dose: 50.0 mg/kg/injection, schedule: Q01DX009 (ip), vehicle: saline + alcohol 116 % of control | [14] 100 % of control | dose: 100.0 mg/kg/injection, schedule: Q01DX009 (ip), vehicle: saline + alcohol 112 % of control | [15] 115 % of control | dose: 200.0 mg/kg/injection, schedule: Q01DX009 (ip), vehicle: saline + alcohol 103 % of control | dose: 400.0 mg/kg/injection, schedule: Q01DX009 (ip), vehicle: saline + alcohol 108 % of control

c1ccc2c(c1)nc1snc(-n3ccnc3)n12
inactive: dose: 50.0 mg/kg/injection, schedule: Q04DX003 (ip), vehicle: saline with Tween-80 103 % of control | dose: 100.0 mg/kg/injection, schedule: Q04DX003 (ip), vehicle: saline with Tween-80 111 % of control | dose: 200.0 mg/kg/injection, schedule: Q04DX003 (ip), vehicle: saline with Tween-80 90 % of control

CC1C(c2ccccc2)OCCN1C(=S)Nc1ccc(S(=O)(=O)N2CCCCC2)cc1 (stereo not drawn)
inactive: [1] 86 % of control and 95 % of control | [2] 105 % of control | [17] 91 % of control and 95 % of control

CCOC(CN/C(=C/c1ccc2ccccc2[n+]1C)SC)OCC
inactive: dose: 15.0 mg/kg/injection, schedule: Q01DX005 (ip), vehicle: saline with Tween-80 117 % of control | dose: 30.0 mg/kg/injection, schedule: Q01DX005 (ip), vehicle: saline with Tween-80 121 % of control
